According to patent US20230255906A1, “Targeting Serpin B9 in Cancer” (The Brigham and Women`s Hospital, Inc., priority 2020, published 2023):

How the values were obtained:
[1] = tested on: RENCA mouse kidney tumors; assay: RENCA kidney tumor model in BALB/c mice; type: in vivo; conditions: 300 μg i.p. bid for 21 days
Text: FIGS. 6N-6O. […] Data are expressed as means±SEM. *P<0.05, **P<0.01 (Student's t-test). Mean survival time (MST) is increased in mice treated with the compound of Formula (III) as compared to Control group (FIG. 6O).
Furthermore, similar antitumor effects and increased MST using the compound of Formula (III) in two other in vivo tumor models were observed: Renca renal cell carcinoma and LLC1 lung cancer (FIGS. 6M-6Q). Thus, inhibition of Sb9 by the compound of Formula (III) has potent anti-tumor effects in a broad spectrum of tumors, including melanomas as well as breast, lung, and kidney tumors.

[2] = molecular target: T1, MBP-Sb9 (Homo sapiens, UniProt P50453); assay: Surface plasmon resonance (SPR) binding; conditions: 25° C., 1:1 Langmuir model
T1 construct: made in house
T1 sequence (P50453 whole entry): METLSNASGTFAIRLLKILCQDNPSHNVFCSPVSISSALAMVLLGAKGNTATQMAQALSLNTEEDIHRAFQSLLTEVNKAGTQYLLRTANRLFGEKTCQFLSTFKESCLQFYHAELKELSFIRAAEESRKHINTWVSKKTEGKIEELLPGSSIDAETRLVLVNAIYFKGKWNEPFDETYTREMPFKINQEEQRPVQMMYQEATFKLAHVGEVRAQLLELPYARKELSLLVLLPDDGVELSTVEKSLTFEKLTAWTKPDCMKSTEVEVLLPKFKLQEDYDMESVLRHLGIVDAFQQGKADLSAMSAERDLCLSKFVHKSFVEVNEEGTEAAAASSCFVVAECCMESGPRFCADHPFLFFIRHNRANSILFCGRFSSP
Protocol: Surface plasmon resonance (SPR) measures change in refractive index on a biosensor surface, as analytic mass accumulates via binding to an attached ligand. This allows derivation of affinity (KD) from measured kinetic rates of association (ka) and dissociation (kd). All assays were run at 25° C. on a BiOptix 404pi. An NTA biosensor chip was used in this study to pre-concentrate 3 μM MBP-Sb9 via an N-terminal His-tag. MBP-Sb9 was covalently immobilized with EDC/NHS in 20 mM HEPES pH 8.0, 150 mM NaCl, 0.05% Tween-20, 5 mM β-ME to 10,000 to 15,000 RUs. MBP was similarly immobilized on a separate channel as a negative control. Compounds were injected as 3-fold serial dilutions in duplicate starting at 200 μM. Injections were done at 50 μL/min for 60 seconds, followed by a 120 second dissociation in 20 mM HEPES, pH 8.0, 150 mM NaCl, 0.05% Tween-20, 5 mM j-ME, 1% DMSO. A series of five DMSO standards between 0.5% and 1.5% were included with each run to correct for bulk refractive index. Sensorgrams were analyzed using Scrubber 2 software with a double reference and fit to a 1:1 Langmuir model to determine the interaction parameters KD, ka, and kd.

[3] = tested on: B16-Sb9 KO cells; assay: RT-PCR gene expression in B16-Sb9 KO cells; type: cell-based, mouse
Protocol: Total RNA was prepared from cells using the Quick-RNA MiniPrep kit (Zymo Research, Irvine, Calif., USA), according to the manufacturer's instructions. cDNA was prepared from total RNA using SuperScript III Reverse Transcriptase (Invitrogen). Following reverse transcription, quantitative PCR was performed using a cycling profile consisting of 95° C. for 2 min (Stage I), 30 cycles of 95° C. for 20 s, 58° C. for 30 s, and 70° C. for 30 s (Stage II), and 65° C. for 5 s (Stage III). Fold changes were determined by subtracting Cq values of the loading control from the Cq values of the gene of interest. The results were normalized to untreated controls.
(§1) To evaluate the off-target effects of the compound of Formula (III) to Sb9 proteins, the B16-Sb9 KO melanoma cells were treated with various concentrations of the compound of Formula (III). […] Furthermore, the antitumor effects of the compound of Formula (III) on the Sb9 KO mice bearing B16-Sb9 KO tumors, as compared to control group were not observed (FIG. 5N).

[4] = molecular target: T2, Sb9-GrB complex (Mus musculus, UniProt F7A2V8); assay: Western blot of Sb9-GrB complex in B16 cells; type: cell-based; conditions: 50 μM, 200 μM, 600 μM, concentration-dependent
T2 construct: endogenous in cells
T2 sequence (F7A2V8 1-374, one chain of several): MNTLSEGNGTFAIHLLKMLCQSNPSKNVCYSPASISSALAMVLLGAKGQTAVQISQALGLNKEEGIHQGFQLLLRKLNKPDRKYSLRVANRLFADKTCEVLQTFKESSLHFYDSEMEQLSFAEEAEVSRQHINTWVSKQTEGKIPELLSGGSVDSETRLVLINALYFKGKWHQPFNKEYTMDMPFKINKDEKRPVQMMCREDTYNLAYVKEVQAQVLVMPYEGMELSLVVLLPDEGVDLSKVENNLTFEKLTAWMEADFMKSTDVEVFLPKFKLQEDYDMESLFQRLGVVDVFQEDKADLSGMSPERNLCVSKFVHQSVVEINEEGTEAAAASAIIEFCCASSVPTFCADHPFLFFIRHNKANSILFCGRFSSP
Protocol: FIG. 4G. […] Sb9-GrB complex (com), unbound Sb9 (mono), and complex degradation products or cleaved Sb9 (deg) are indicated by arrows. GAPDH was used as a loading control for protein normalization.
Lysates of cells and tissues were measured using the Bradford assay. Equal amounts of protein were separated by SDS-PAGE and transferred to a PVDF membrane. The membranes were immunoblotted with the following specific antibodies: anti-rabbit IgG-HRP (Sigma-Aldrich), anti-rat IgG-HRP (Sigma-Aldrich), and anti-GAPDH (Sigma-Aldrich), using standard protocols. The blots were developed with West Dura chemiluminescent substrates using a Bio-Rad ChemiDoc imaging system.

[5] = tested on: B16-Sb9 KO tumors; assay: B16-Sb9 KO tumors in Sb9 KO mice; type: in vivo, mouse; conditions: Sb9 KO mice bearing B16-Sb9 KO tumors
Protocol: FIG. 5N. Tumor growth curve indicates no difference in antitumor effect of the compound of Formula (III) on B16-Sb9 KO tumors in Sb9 KO mice, as compared to the control group. Data are expressed as means±SEM.
as §1

[6] = tested on: B16-WT mouse melanoma tumors; assay: B16 melanoma tumor model in C57BL/6 mice; type: in vivo
Protocol: Mice were anesthetized with isoflurane, and tumor cell lines (B16, A375, and 4T1) were gently injected subcutaneously in the flanks or mammary glands of mice. One hundred thousand cells (1×10^5 cells) were injected per mouse for most of the experiments. However, twenty-five thousand cells (25×10^3 cells) were injected per mouse for the experiments using the compound of Formula (III). Upon 4 hrs post-implantation, 300 μg of the compound of Formula (III) was administered twice a day intraperitoneally for 14 days. Tumor growth was monitored three times per week by digital caliper (Fisherbrand™ Traceable™ Digital Calipers).
The anti-tumor activity of the compound of Formula (III) in vivo was assessed. […] Treatment with the compound of Formula (III) increased the median survival time (MST) of mice bearing B 16-WT mouse melanoma tumors and receiving treatment with the compound of Formula (III) as compared to mice bearing B16-WT melanoma tumors and not receiving treatment (MST=39 days vs MST=26 days, respectively) (FIG. 51B). Next, the effect of the compound of Formula (III) on tumor immunity was examined.
The efficacy of the compound of Formula (III) was assessed in C57BL/6J mice (FIG. 18). B16 mouse melanoma cells were implanted subcutaneously into the right flanks of C57BL/6J mice, and the mice were randomized into three groups: (1) no treatment (control), (2) treatment with anti-PD1, and (3) treatment with Formula (III). The mice in the anti-PD1 group received 200 μg of anti-PD1 iv every 3 days, and those in the Formula (III) group received 300 μg of Formula (III) twice a day consecutively for 14 days.
A survival study using the compound of Formula (IV) in mice harboring B16 melanoma was performed. Mice implanted with B16 tumors were treated with the compound of Formula (IV) (n=8) and compared to a control group having B16 tumors and not receiving treatment with the compound of Formula (IV) (n=8).

[7] = 17 days post-implantation, flow cytometry

## O=C(O)c1ccc2ncoc2c1 [Formula (III), 1,3-benzoxazole-6-carboxylic acid]
[1]
  Mean survival time (MST) vs Control: increased
[1]; male BALB/c mice
  tumor growth vs control: significantly slower growth
[2]
  Kd: 273 µM
[3]
  gene expression of caspase-3/8, P53, and Bcl-2: no significant effect
[4]
  expression of the Sb9-GrB complex: reduced the expression of the Sb9-GrB complex
[5]
  antitumor effects vs control group: not observed
[6]; 17 days post-implantation
  level of effector IFNγ+ CD4+ cells in TME: increased level
  level of immunosuppressive IL10+CD4+ and IL10+CD8+ cells in TME: decreased level
[6]; [7]
  levels of immunosuppressive Tregs, TAMs, and MDSCs in melanoma vs control: significantly lower
  populations of CD44+ CD62L− (effector memory) CD8+, GrB+ CD8+ and IFNγ+ CD8+ in melanoma vs control: significantly higher
[6]; B16-WT tumors, 300 μg i.p. bid for 14 days (FIG. 5B)
  median survival time (MST): 39 days
[6]; C57BL/6J, FIG. 18, Formula (III) 300 μg twice a day 14 days, anti-PD1 200 μg iv every 3 days
  median survival time (MST): 36 days
[6]; C57BL/6 mice, 300 μg i.p. bid for 14 days
  reduction of size of B16 tumors vs control: 3.7 fold
